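Step 1: Grow cells in 96-well plates. Step 2: Expose to compound for 48 hours at 5 concentrations. Step 3: Interpolate endpoints linearly; if unreached, use highest concentration. TGI denotes the concentration required for complete inhibition of growth.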
Assays:
Assay in all cases: inhibition of tumour cell growth, NCI panel, 48 h
SNB-78 CNS = test system: SNB-78 CNS
XF 498 CNS = test system: XF 498 CNS
COLO 205 colon = test system: COLO 205 colon
RPMI-8226 leukemia = test system: RPMI-8226 leukemia
A549 NSCLC = test system: A549 NSCLC
LOX IMVI melanoma = test system: LOX IMVI melanoma
U251 CNS = test system: U251 CNS
HOP-92 NSCLC = test system: HOP-92 NSCLC
KM12 colon = test system: KM12 colon
SF-295 CNS = test system: SF-295 CNS
IGROV1 ovarian = test system: IGROV1 ovarian
SNB-19 CNS = test system: SNB-19 CNS
MALME-3M melanoma = test system: MALME-3M melanoma
SK-OV-3 ovarian = test system: SK-OV-3 ovarian
NCI-H23 lung = test system: NCI-H23 lung
RXF 393 renal = test system: RXF 393 renal
HCT-116 colon = test system: HCT-116 colon
A498 renal = test system: A498 renal
EKVX NSCLC = test system: EKVX NSCLC
DLD-1 colon = test system: DLD-1 colon
MOLT-4 leukemia = test system: MOLT-4 leukemia
UO-31 renal = test system: UO-31 renal
SK-MEL-28 melanoma = test system: SK-MEL-28 melanoma
HOP-18 NSCLC = test system: HOP-18 NSCLC
UACC-62 melanoma = test system: UACC-62 melanoma
NCI-H522 lung = test system: NCI-H522 lung
DMS 114 small cell lung = test system: DMS 114 small cell lung
ACHN renal = test system: ACHN renal
DMS 273 small cell lung = test system: DMS 273 small cell lung
CCRF-CEM leukemia = test system: CCRF-CEM leukemia
NCI-H460 lung = test system: NCI-H460 lung
786-0 renal = test system: 786-0 renal
M19-MEL melanoma = test system: M19-MEL melanoma
UACC-257 melanoma = test system: UACC-257 melanoma
OVCAR-8 ovarian = test system: OVCAR-8 ovarian
HCT-15 colon = test system: HCT-15 colon
KM20L2 colon = test system: KM20L2 colon
SK-MEL-5 melanoma = test system: SK-MEL-5 melanoma
RXF-631 renal = test system: RXF-631 renal
HOP-62 NSCLC = test system: HOP-62 NSCLC
SW-620 colon = test system: SW-620 colon
LXFL 529 NSCLC = test system: LXFL 529 NSCLC
SR leukemia = test system: SR leukemia
SNB-75 CNS = test system: SNB-75 CNS
OVCAR-4 ovarian = test system: OVCAR-4 ovarian
HCC-2998 colon = test system: HCC-2998 colon
TK-10 renal = test system: TK-10 renal
SN12C renal = test system: SN12C renal
CAKI-1 renal = test system: CAKI-1 renal
SF-539 CNS = test system: SF-539 CNS
M14 melanoma = test system: M14 melanoma
OVCAR-5 ovarian = test system: OVCAR-5 ovarian
SK-MEL-2 melanoma = test system: SK-MEL-2 melanoma
OVCAR-3 ovarian = test system: OVCAR-3 ovarian
HT29 colon = test system: HT29 colon
NCI-H226 lung = test system: NCI-H226 lung
K-562 leukemia = test system: K-562 leukemia
HL-60(TB) leukemia = test system: HL-60(TB) leukemia
SF-268 CNS = test system: SF-268 CNS

In the case of `CCCCCCCC(=O)OCC1OC(OC)C(NC(=O)N(CCCl)N=O)C(O)C1O` (configuration not stated), the TGI (SNB-78 CNS) is reported as 79.6 µM, the TGI (XF 498 CNS) is reported as 30.6 µM and the TGI (COLO 205 colon) is reported as 30.8 µM. For the same compound, the TGI (RPMI-8226 leukemia) was 53.1 µM, the TGI (A549 NSCLC) was greater than 72.3 µM and the TGI (LOX IMVI melanoma) was 23.8 µM. It also gave a TGI (U251 CNS) greater than 70.1 µM, a TGI (HOP-92 NSCLC) of 9.96 µM and a TGI (KM12 colon) of 27.7 µM. For the same compound, the TGI (SF-295 CNS) was 33 µM, the TGI (IGROV1 ovarian) was 67.1 µM and the TGI (SNB-19 CNS) was greater than 100 µM. The TGI (MALME-3M melanoma) was 28.5 µM, the TGI (SK-OV-3 ovarian) was 97.1 µM and the TGI (NCI-H23 lung) was 29.4 µM. The TGI (RXF 393 renal) was 34.3 µM, the TGI (HCT-116 colon) was 15 µM and the TGI (A498 renal) was 56.8 µM. The TGI (EKVX NSCLC) was greater than 83.9 µM, the TGI (DLD-1 colon) was 28.6 µM and the TGI (MOLT-4 leukemia) was 36.1 µM. The TGI (UO-31 renal) was 45.9 µM, the TGI (SK-MEL-28 melanoma) was greater than 100 µM and the TGI (HOP-18 NSCLC) was 72.3 µM. It also gave a TGI (UACC-62 melanoma) of 14 µM, a TGI (NCI-H522 lung) of 16 µM and a TGI (DMS 114 small cell lung) of 29.6 µM. The TGI (ACHN renal) was greater than 100 µM, the TGI (DMS 273 small cell lung) was 15.9 µM and the TGI (CCRF-CEM leukemia) was 40.5 µM. For the same compound, the TGI (NCI-H460 lung) was greater than 39.2 µM, the TGI (786-0 renal) was 22.7 µM and the TGI (M19-MEL melanoma) was 49.2 µM. For the same compound, the TGI (UACC-257 melanoma) was 41.3 µM, the TGI (OVCAR-8 ovarian) was 57.2 µM and the TGI (HCT-15 colon) was 15.5 µM. For the same compound, the TGI (KM20L2 colon) was greater than 59.2 µM, the TGI (SK-MEL-5 melanoma) was 35.8 µM and the TGI (RXF-631 renal) was 19 µM. The TGI (HOP-62 NSCLC) was 23.1 µM, the TGI (SW-620 colon) was 18.9 µM and the TGI (LXFL 529 NSCLC) was 42 µM. It also gave a TGI (SR leukemia) of 23.9 µM, a TGI (SNB-75 CNS) of 53.3 µM and a TGI (OVCAR-4 ovarian) greater than 100 µM. The TGI (HCC-2998 colon) was 30.3 µM, the TGI (TK-10 renal) was 58 µM and the TGI (SN12C renal) was 26.6 µM. For the same compound, the TGI (CAKI-1 renal) was 32.6 µM, the TGI (SF-539 CNS) was 16.5 µM and the TGI (M14 melanoma) was 21.6 µM. The TGI (OVCAR-5 ovarian) was 97.5 µM, the TGI (SK-MEL-2 melanoma) was greater than 57.2 µM and the TGI (OVCAR-3 ovarian) was 47.7 µM. It also gave a TGI (HT29 colon) of 50.3 µM, a TGI (NCI-H226 lung) of 42.1 µM and a TGI (K-562 leukemia) greater than 58 µM. For the same compound, the TGI (HL-60(TB) leukemia) was 22.3 µM.

For `Clc1cc2n[se]nc2cc1Cl`, the TGI (SNB-78 CNS) was greater than 100 µM, the TGI (XF 498 CNS) was greater than 100 µM and the TGI (RPMI-8226 leukemia) was greater than 100 µM. For the same compound, the TGI (A549 NSCLC) was greater than 100 µM, the TGI (LOX IMVI melanoma) was greater than 100 µM and the TGI (U251 CNS) was greater than 100 µM. The TGI (KM12 colon) was greater than 100 µM, the TGI (SF-295 CNS) was greater than 100 µM and the TGI (IGROV1 ovarian) was greater than 100 µM. For the same compound, the TGI (SNB-19 CNS) was greater than 100 µM, the TGI (MALME-3M melanoma) was greater than 100 µM and the TGI (SK-OV-3 ovarian) was greater than 100 µM. The TGI (NCI-H23 lung) was greater than 100 µM, the TGI (RXF 393 renal) was greater than 100 µM and the TGI (HCT-116 colon) was greater than 100 µM. It also gave a TGI (A498 renal) greater than 100 µM, a TGI (EKVX NSCLC) greater than 100 µM and a TGI (DLD-1 colon) greater than 100 µM. It also gave a TGI (MOLT-4 leukemia) greater than 100 µM, a TGI (UO-31 renal) greater than 100 µM and a TGI (SK-MEL-28 melanoma) greater than 100 µM. For the same compound, the TGI (HOP-18 NSCLC) was greater than 100 µM, the TGI (UACC-62 melanoma) was greater than 100 µM and the TGI (DMS 114 small cell lung) was greater than 100 µM. It also gave a TGI (ACHN renal) greater than 100 µM, a TGI (DMS 273 small cell lung) greater than 100 µM and a TGI (CCRF-CEM leukemia) greater than 100 µM. It also gave a TGI (NCI-H460 lung) greater than 100 µM, a TGI (786-0 renal) greater than 100 µM and a TGI (M19-MEL melanoma) greater than 100 µM. The TGI (UACC-257 melanoma) was greater than 100 µM, the TGI (OVCAR-8 ovarian) was greater than 100 µM and the TGI (HCT-15 colon) was greater than 100 µM. For the same compound, the TGI (KM20L2 colon) was greater than 100 µM, the TGI (SK-MEL-5 melanoma) was greater than 100 µM and the TGI (RXF-631 renal) was greater than 100 µM. It also gave a TGI (HOP-62 NSCLC) greater than 100 µM, a TGI (SW-620 colon) greater than 100 µM and a TGI (LXFL 529 NSCLC) greater than 100 µM. The TGI (SR leukemia) was greater than 100 µM, the TGI (SNB-75 CNS) was greater than 100 µM and the TGI (OVCAR-4 ovarian) was greater than 100 µM. It also gave a TGI (HCC-2998 colon) greater than 100 µM, a TGI (TK-10 renal) greater than 100 µM and a TGI (SN12C renal) greater than 100 µM. The TGI (CAKI-1 renal) was greater than 100 µM, the TGI (SF-539 CNS) was greater than 100 µM and the TGI (SF-268 CNS) was greater than 100 µM. It also gave a TGI (M14 melanoma) greater than 100 µM, a TGI (OVCAR-5 ovarian) greater than 100 µM and a TGI (SK-MEL-2 melanoma) greater than 100 µM. For the same compound, the TGI (HT29 colon) was greater than 100 µM, the TGI (K-562 leukemia) was greater than 100 µM and the TGI (HL-60(TB) leukemia) was greater than 100 µM.

From PubChem BioAssay (NCI)
